Laboratory results from US10472354B2, “1,3-thiazol-2-yl substituted benzamides” (Bayer Aktiengesellschaft, priority 2014, dated 2019).

How the values were obtained:
[1] = In vitro metabolic stability in liver microsomes (calculation of CL and Fmax); assay type: in vitro ADME, human; details: 1 μM, in vitro metabolic stability given as calculated maximal oral bioavailability
Description: Determination of in vitro metabolic stability in microsomes (including calculation of hepatic in vivo blood clearance (CL) and of maximal oral bioavailability (Fmax))
The metabolic assay was started shortly afterwards by adding the test compound to the incubation at a final volume of 1 mL. Organic solvent in the incubations was limited to ≤0.01% dimethylsulfoxide (DMSO) and ≤1% acetonitrile. […] Samples were frozen at −20° C. overnight, subsequently centrifuged for 15 minutes at 3000 rpm and the supernatant was analyzed with an Agilent 1200 HPLC-system with LCMS/MS detection.
The half-life of a test compound was determined from the concentration-time plot. From the half-life (kel: slope of concentration-time plot; half-life=ln 2/kel) the intrinsic clearances were calculated. Together with the additional parameters liver blood flow, specific liver weight and microsomal protein content the hepatic in vivo blood clearance (CL) and the maximal oral bioavailability (Fmax) were calculated for the different species.
(§1) Metabolic instability is often the main clearance mechanism of xenobiotica leading to a high CL and low bioavailability which may eventually result in a short half-life and a low exposure after oral administration. Thus, reducing the susceptibility of metabolic degradation usually leads to a more favourable pharmacokinetic profile. When using liver microsomes as incubation matrix main phase I metabolic reactions, typically oxidoreductive reactions by cytochrome P450 enzymes and flavin mono-oxygenases (FMO) and hydrolytic reactions by esterases/amidases/epoxidhydrolases, are described. When the incubation of the test compound is performed in a hepatocyte matrix all potential hepatic metabolic processes (phase I and phase II) are covered.

[2] = In vitro metabolic stability in rat hepatocytes; assay type: in vitro ADME; details: 1 μM, in vitro metabolic stability given as calculated maximal oral bioavailability
Description: Determination of in vitro metabolic stability in rat hepatocytes (including calculation of hepatic in vivo blood clearance (CL))
Hepatocytes from Han Wistar rats were isolated via a 2-step perfusion method. After perfusion, the liver was carefully removed from the rat: the liver capsule was opened and the hepatocytes were gently shaken out into a Petri dish with ice-cold Williams' medium E (WME). The resulting cell suspension was filtered through sterile gaze in 50 mL falcon tubes and centrifuged at 50×g for 3 min at room temperature. The cell pellet was resuspended in 30 mL WME and centrifuged through a Percoll® gradient for 2 times at 100×g. The hepatocytes were washed again with WME and resuspended in medium containing 5% FCS. Cell viability was determined by trypan blue exclusion.
The test compound was added to a final concentration of 1 μM. […] Samples were frozen at −20° C. overnight, subsequently centrifuged for 15 minutes at 3000 rpm and the supernatant was analyzed with an Agilent 1200 HPLC-system with LCMS/MS detection.
The half-life of a test compound was determined from the concentration-time plot. From the half-life (kel: slope of concentration-time plot; half-life=ln 2/kel) the intrinsic clearances were calculated. Together with the additional parameters liver blood flow, amount of liver cells in vivo and in vitro.
as §1

CYP2D6 = CYP2D6 (Homo sapiens (Human), UniProt P10635); test: CYP inhibition assay, CYP2D6; assay type: in vitro ADME; details: human liver microsomes, probe dextromethorphan
Chain of CYP2D6 (P10635 whole entry): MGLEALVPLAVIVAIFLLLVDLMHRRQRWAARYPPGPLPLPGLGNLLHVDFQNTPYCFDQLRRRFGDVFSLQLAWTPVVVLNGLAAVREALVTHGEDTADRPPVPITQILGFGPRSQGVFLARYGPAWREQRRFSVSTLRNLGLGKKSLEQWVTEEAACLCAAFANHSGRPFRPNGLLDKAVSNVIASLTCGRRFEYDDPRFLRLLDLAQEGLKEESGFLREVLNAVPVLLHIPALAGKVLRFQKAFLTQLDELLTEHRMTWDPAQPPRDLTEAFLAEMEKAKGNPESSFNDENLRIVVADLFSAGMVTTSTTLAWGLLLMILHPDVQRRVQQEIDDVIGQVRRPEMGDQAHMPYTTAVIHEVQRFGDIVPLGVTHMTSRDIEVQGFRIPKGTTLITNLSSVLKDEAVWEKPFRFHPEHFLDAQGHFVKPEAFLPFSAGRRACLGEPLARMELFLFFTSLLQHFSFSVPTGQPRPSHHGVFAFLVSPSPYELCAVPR
Description: (§2) Method Description CYP Inhibition Assay
(§3) Data analysis: The CYP-mediated activities in the presence of inhibitors were expressed as percentages of the corresponding control values. A sigmoid-shaped curve was fitted to the data, and the enzyme inhibition parameter IC50 was calculated using a nonlinear least-squares regression analysis of the plot of percent control activity versus concentration of the test inhibitor.

CYP3A4 = CYP3A4 (Homo sapiens (Human), UniProt P08684); test: CYP inhibition assay, CYP3A4; assay type: in vitro ADME; details: human liver microsomes, probe midazolam
Chain of CYP3A4 (P08684 whole entry): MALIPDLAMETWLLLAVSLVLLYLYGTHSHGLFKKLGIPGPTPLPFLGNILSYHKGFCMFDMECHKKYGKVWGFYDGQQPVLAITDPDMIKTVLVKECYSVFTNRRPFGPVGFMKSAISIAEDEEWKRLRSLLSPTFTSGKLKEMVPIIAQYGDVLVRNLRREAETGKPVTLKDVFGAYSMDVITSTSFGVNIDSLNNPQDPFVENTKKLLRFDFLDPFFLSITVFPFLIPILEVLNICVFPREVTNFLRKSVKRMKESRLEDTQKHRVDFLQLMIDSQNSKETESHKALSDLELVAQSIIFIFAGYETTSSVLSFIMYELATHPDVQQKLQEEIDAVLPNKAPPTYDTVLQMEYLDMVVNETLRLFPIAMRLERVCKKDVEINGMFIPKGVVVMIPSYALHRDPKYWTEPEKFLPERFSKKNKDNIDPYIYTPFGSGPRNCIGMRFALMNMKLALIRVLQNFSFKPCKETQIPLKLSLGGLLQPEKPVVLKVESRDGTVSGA
Description: as §2, §3

CYP2C9 = CYP2C9 (Homo sapiens (Human), UniProt P11712); test: CYP inhibition assay, CYP2C9; assay type: in vitro ADME; details: human liver microsomes, probe diclofenac
Chain of CYP2C9 (P11712 whole entry): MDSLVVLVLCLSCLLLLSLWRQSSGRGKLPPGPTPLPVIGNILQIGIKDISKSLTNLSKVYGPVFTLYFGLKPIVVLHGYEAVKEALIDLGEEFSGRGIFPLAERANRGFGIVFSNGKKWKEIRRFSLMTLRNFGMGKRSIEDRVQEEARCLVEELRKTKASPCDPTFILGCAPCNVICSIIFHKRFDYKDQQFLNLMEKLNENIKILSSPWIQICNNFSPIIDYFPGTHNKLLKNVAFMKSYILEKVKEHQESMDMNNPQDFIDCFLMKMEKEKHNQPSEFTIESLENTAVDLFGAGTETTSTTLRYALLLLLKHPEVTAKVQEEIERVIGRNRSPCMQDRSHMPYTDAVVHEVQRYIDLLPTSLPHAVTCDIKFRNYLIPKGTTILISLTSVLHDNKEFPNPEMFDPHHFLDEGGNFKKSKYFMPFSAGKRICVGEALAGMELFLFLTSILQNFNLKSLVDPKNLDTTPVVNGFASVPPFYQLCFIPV
Description: as §2, §3

CYP2C8 = CYP2C8 (Homo sapiens (Human), UniProt P10632); test: CYP inhibition assay, CYP2C8; assay type: in vitro ADME; details: human liver microsomes, probe amodiquine
Chain of CYP2C8 (P10632 whole entry): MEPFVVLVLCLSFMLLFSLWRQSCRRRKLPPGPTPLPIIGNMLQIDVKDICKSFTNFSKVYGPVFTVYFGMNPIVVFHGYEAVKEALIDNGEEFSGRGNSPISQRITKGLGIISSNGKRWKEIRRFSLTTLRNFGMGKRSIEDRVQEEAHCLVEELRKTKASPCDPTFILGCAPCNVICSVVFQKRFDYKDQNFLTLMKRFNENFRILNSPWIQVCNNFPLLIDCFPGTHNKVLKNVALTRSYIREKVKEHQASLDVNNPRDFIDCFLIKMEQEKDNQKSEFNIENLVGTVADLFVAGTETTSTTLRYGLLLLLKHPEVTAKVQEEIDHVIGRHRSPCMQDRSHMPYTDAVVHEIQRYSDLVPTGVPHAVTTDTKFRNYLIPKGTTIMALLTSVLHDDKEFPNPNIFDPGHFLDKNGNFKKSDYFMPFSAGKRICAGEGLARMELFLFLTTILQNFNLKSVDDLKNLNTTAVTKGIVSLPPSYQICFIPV
Description: as §2, §3

CYP1A2 = CYP1A2 (Homo sapiens (Human), UniProt P05177); test: CYP inhibition assay, CYP1A2
Chain of CYP1A2 (P05177 whole entry): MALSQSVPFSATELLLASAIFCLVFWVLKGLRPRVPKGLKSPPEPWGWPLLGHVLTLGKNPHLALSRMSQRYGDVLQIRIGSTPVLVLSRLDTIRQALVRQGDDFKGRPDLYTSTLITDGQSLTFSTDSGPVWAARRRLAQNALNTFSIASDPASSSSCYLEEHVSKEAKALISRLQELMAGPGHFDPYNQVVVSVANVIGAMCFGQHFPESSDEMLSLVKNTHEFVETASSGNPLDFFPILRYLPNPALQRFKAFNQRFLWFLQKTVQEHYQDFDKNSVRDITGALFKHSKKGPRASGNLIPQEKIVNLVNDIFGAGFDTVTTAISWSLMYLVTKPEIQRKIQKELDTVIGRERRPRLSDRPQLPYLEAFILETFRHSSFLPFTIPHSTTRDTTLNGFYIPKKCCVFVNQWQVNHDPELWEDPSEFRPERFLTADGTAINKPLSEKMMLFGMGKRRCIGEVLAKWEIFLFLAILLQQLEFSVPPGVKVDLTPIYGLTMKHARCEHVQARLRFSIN
Description: as §2, §3

[3] = clinical PhII trials; side effect attributed to blockade of P2X2/3 channels; cited from earlier work
[4] = Human liver cytosol stability assay; assay type: in vitro ADME; details: 4 h incubation, 37° C.
Description: Human Liver Cytosol Stability Assay
Method description: Human liver cytosol (pooled, >30 male and female donors) was incubated with individual test compounds in order to compare the extent of depletion of test compound and formation of the respective oxidised metabolite. […] An incubation volume of 1000 μL was used. The test compound was added from a stock solution in acetonitrile at 1 or 10 μM concentration in the incubation. Incubations were performed at 37° C. Reactions were stopped at 0 h and 4 h after incubation by addition of 100 μL acetonitrile to 250 μL of incubation mixture. Precipitated proteins were removed by centrifugation at approximately 3000 rpm. The supernatants were stored at approximately −20° C. until they were analysed. […]
Data analysis: The depletion of the test compound and formation of the corresponding metabolites were determined by decrease or increase of the corresponding peak area in the chromatogram after UV detection at approximately 300 nm 4 h after incubation compared to that at 0 h after incubation. […]

vaginal hyperalgesia = test: Rat dyspareunia model (visceromotor response to vaginal distension); assay type: in vivo; details: 15 mg/kg oral b.i.d. during 2 weeks, 5 and 6 weeks post-implantation
Description: The visceromotor response (VMR) to vaginal distension was used in conscious animals as an objective measure of vaginal sensitivity. Briefly, animals in estrus phase were surgically implanted with biopsies of left uterine horn (3×3 mm) around alternate cascade mesenteric arteries that supply the small intestine (4 pieces) and on the wall of the distal colon (2 pieces). To measure VMR response, 2 Teflon-coated wire electrodes were sutured in the external oblique abdominal muscle, and tunneled subcutaneously to be exteriorized at the base of the neck for future access. On the day of VMR assessment, a lubricated small balloon (1 cm length) was inserted into the mid-vaginal canal. […] The electrodes were connected to an amplifier (Animal Bio Amp, ADInstruments), and the abdominal electromyographic signal was recorded using a data acquisition system (PowerLab, ADInstruments) for off-line analysis using LabChart version 7. The number of abdominal muscle contractions was counted manually for each 0.1 ml distension step, as an index of vaginal pain. […] Statistical Analysis All data were expressed as mean±standard deviation (s.d.), for the number (n) of measured rats per group. […] Planned comparison of means (matched-volume versus vehicle) was performed using a Bonferroni post hoc test, provided that a main effect was detected. […]

Human liver microsome Fmax [1] [%]	Rat hepatocyte Fmax [2] [%]	SMILES	other results
100	53	Cc1cnc(-c2cc(OC(C)C(C)O)cc(C(=O)N[C@H](C)c3cnc(C(F)(F)F)nc3)c2)s1 (single isomer, unassigned) [Example 163]	
74	43	Cc1cnc(-c2cc(OC(C)C(C)O)cc(C(=O)N[C@H](C)c3ccc(C(F)(F)F)nn3)c2)s1 (single isomer, unassigned) [Example 183]	
94	52	Cc1cnc(-c2cc(OC(C)C(C)O)cc(C(=O)N[C@H](C)c3cnc(C(F)(F)F)nc3)c2)s1 (single isomer, unassigned) [Example 339]	IC50 (CYP2D6): > 20 µM; IC50 (CYP3A4): > 20 µM; IC50 (CYP2C9): > 20 µM; IC50 (CYP2C8): > 20 µM; IC50 (CYP1A2): > 20 µM
74	51	CCc1cnc(-c2cc(OC[C@H]3CN(C)CCO3)cc(C(=O)N[C@H](C)c3ccc(C(F)(F)F)nn3)c2)s1 [Example 419, 3-(5-ethyl-1,3-thiazol-2-yl)-5-{[(2R)-4-methylmorpholin-2-yl]methoxy}-N-{(1R)-1-[6-(trifluoromethyl)pyridazin-3-yl]ethyl}benzamide]	
		COc1cc(C(C)C)c(Oc2cnc(N)nc2N)cc1S(N)(=O)=O [AF-219]	taste disturbances in treated subjects [3]: leads to taste disturbances
90	64	Cc1cnc(-c2cc(OC(C)C(C)O)cc(C(=O)N[C@H](C)c3cnc(C(F)(F)F)nc3)c2)s1 (single isomer, unassigned) [Example 340]	
67	56	Cc1cnc(-c2cc(O[C@H]3CCOC3)cc(C(=O)N[C@H](C)c3cnc(C(F)(F)F)nc3)c2)s1 [Example 26, 3-(5-Methyl-1,3-thiazol-2-yl)-5-[(3S)-tetrahydrofuran-3-yloxy]-N-{(1R)-1-[2-(trifluoromethyl)pyrimidin-5-yl]ethyl}benzamide]	Test compound turnover after 4 h [4]: 0.9%
57	52	Cc1cnc(-c2cc(O[C@@H]3CCOC3)cc(C(=O)N[C@H](C)c3cnc(C(F)(F)F)nc3)c2)s1 [Example 11, 3-(5-Methyl-1,3-thiazol-2-yl)-5-[(3R)-tetrahydrofuran-3-yloxy]-N-{(1R)-1-[2-(trifluoromethyl)pyrimidin-5-yl]ethyl}benzamide]	Test compound turnover after 4 h [4]: 0.9%; Vaginal hyperalgesia compared to vehicle-treated animals (vaginal hyperalgesia): decreased vaginal hyperalgesia
